We go through ten compounds from ChEMBL document CHEMBL3638448, “8-[3-amino-piperidin-1-yl]-xanthines, their preparation and their use as pharmaceutical compositions” (2014).

Structures are written as SMILES.

Dipeptidyl peptidase 4, sequence (P27487 whole entry): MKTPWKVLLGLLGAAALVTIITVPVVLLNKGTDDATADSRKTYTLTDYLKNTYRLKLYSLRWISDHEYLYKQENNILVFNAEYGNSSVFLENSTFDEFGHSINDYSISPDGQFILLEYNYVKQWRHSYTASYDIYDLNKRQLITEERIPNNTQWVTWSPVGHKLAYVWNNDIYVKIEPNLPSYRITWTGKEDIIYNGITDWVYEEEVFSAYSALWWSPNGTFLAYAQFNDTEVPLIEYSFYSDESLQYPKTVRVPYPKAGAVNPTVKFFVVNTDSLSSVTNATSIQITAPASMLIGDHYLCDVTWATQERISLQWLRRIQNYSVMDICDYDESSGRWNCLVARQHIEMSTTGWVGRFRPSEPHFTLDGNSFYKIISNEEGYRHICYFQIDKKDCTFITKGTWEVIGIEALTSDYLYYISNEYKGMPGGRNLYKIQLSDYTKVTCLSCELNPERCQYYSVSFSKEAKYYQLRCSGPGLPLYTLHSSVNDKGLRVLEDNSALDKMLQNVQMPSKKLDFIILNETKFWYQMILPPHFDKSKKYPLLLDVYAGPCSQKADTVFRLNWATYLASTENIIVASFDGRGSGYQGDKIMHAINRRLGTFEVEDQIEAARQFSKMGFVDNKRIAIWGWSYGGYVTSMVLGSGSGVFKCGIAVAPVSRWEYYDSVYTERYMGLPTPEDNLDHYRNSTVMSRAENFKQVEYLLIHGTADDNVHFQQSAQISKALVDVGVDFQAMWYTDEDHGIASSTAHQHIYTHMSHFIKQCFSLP

This assay has as its target Dipeptidyl peptidase 4 (Homo sapiens, UniProt P27487). Kind of assay: Biological Assay: 50 μl of substrate solution (AFC; AFC is amido-4-trifluoromethylcoumarin), final concentration 100 μM, was placed in black microtitre plates. 20 μl of assay buffer (final concentrations 50 mM Tris HCl pH 7.8, 50 mM NaCl, 1% DMSO) was pipetted therein. The reaction was started by the addition of 30 μl of solubilized Caco-2 protein (final concentration 0.14 μg of protein per well). The test substances under investigation were typically added prediluted to 20 μl, while the volume of assay buffer was then reduced accordingly. The reaction was carried out at ambient temperature, the incubation period was 60 minutes. Then the fluorescence was measured in a Victor 1420 Multilabel Counter, with the excitation wavelength at 405 nm and the emission wavelength at 535 nm.
`CC#CCn1c(N2CCCC(NC(=O)OC(C)(C)C)C2)nc2c1c(=O)n(Cc1nc(NCc3ccccc3)c3ccccc3n1)c(=O)n2C` (stereo not given) displayed an IC50 of 6 nM. On to `CC#CCn1c(N2CCC[C@@H](NC(=O)OC(C)(C)C)C2)nc2c1c(=O)n(Cc1cc(C#N)cc3ccccc13)c(=O)n2C`, for which 6 nM corresponded to half-maximal inhibition (IC50). Under `CC#CCn1c(N2CCC[C@@H](NC(=O)OC(C)(C)C)C2)nc2c1c(=O)n(Cc1nc(-c3ccccc3)nc3ccccc13)c(=O)n2C` stands 9 nM; under `CC#CCn1c(N2CCC[C@@H](NC(=O)OC(C)(C)C)C2)nc2c1c(=O)n(Cc1cc(C#N)c3ccccc3n1)c(=O)n2C`, 2 nM.

As to `CC#CCn1c(N2CCC[C@@H](NC(=O)OC(C)(C)C)C2)nc2c1c(=O)n(CC(=O)c1cccc(OC3CC3)c1)c(=O)n2C`, the IC50 was 5 nM.

`CC#CCn1c(N2CCC[C@@H](NC(=O)OC(C)(C)C)C2)nc2c1c(=O)n(Cc1ccc3nc(C)c(C)nc3c1)c(=O)n2C` came in with an IC50 of 2 nM.

On to `CC#CCn1c(N2CCC[C@@H](NC(=O)OC(C)(C)C)C2)nc2c1c(=O)n(CC(=O)c1ccccc1Br)c(=O)n2C`, for which the IC50 is 2 nM.

As to `CC#CCn1c(N2CCC[C@@H](NC(=O)OC(C)(C)C)C2)nc2c1c(=O)n(Cc1nc3ccccc3c(C)c1C#N)c(=O)n2C`, the IC50 turned out to be 2 nM. Under `CC#CCn1c(N2CCC[C@@H](NC(=O)OC(C)(C)C)C2)nc2c1c(=O)n(Cc1nccc(-c3ccccc3)n1)c(=O)n2C` stands 2 nM. The value for `CC#CCn1c(N2CCC[C@@H](NC(=O)OC(C)(C)C)C2)nc2c1c(=O)n(CC(=O)c1ccccc1[N+](=O)[O-])c(=O)n2C` was 3 nM.

Broadly, the IC50 is the concentration that gives 50% inhibition. Read a low IC50 as inhibition by little substance.
